Data taken from PMC11992225, “Antibacterial compounds against non-growing and intracellular bacteria” (npj Antimicrobials and Resistance, 2025).
In brackets after ≈: the same amount, converted by molar mass. Several values for one entry are separate records, joined by “and”; a condition that tells them apart may be missing. Equal values may be shown once. Read-outs that look alike come from different tables or passages of the source.

What was measured:
non-growing UPEC CFT073 [1] = assay: Dilution-regrowth assay (screen, hit validation, dose-response) on stationary-phase UPEC; assay type: cell-based, Escherichia coli; settings: for Regrowth, OD600 at 6h or 8h after dilution into drug-free medium: average; for EC50: Escherichia coli
Summary of the method: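 Regrowth (OD600 after 6 h, 37 °C) of diluted non-growing CFT073, following 24 h compound treatment of 24 h stationary cultures, defines activity relative to untreated control. Screen at 20 µM, validation at 20, 10, 5 µM (duplicates), dose–response in three biological replicates fitted by five-parameter logistic.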

P. aeruginosa DSM1117 = assay: MIC, standard microdilution assay, growing P. aeruginosa; assay type: cell-based, Pseudomonas aeruginosa; settings: Pseudomonas aeruginosa, DSM1117; P. aeruginosa; CA-MHB pH 7.4; read-out: MIC (μM) CA-MHB
Summary of the method: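 Each strain was exposed to serially diluted compound in broth, in triplicate. The media were TSB for Shigella; CA-MHB at pH 7.4 (HEPES 40 mM) for S. aureus, P. aeruginosa and UPEC; and, for UPEC only, low-pH LPM (pH 5.5, 30 mM MES).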

[2] = tested on: non-growing P. aeruginosa DSM1117; assay: Dose-dependent killing analysis (CFU spot-plating) of stationary-phase P. aeruginosa; assay type: cell-based, Pseudomonas aeruginosa; settings: P. aeruginosa; for log10(CFU/ml) after treatment: individual replicates
Summary of the method: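 Stationary-phase P. aeruginosa DSM1117 treated for 24 h in 1:4 CA-MHB, pH 7.4, across compound doses. Survivors counted after 10-fold PBS dilution, spot-plating on LB agar and overnight growth at 37 °C; three biological replicates.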

non-growing UPEC CFT073 [3] = assay: Dose-dependent killing analysis (CFU spot-plating) of stationary-phase UPEC; assay type: cell-based, Escherichia coli; settings: individual replicates
Summary of the method: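 Non-growing (stationary-phase) UPEC CFT073 treated with compounds in 96-well format at 200 μl, then 10-fold serially diluted in PBS and 10 μl spots plated on LB agar. Plates incubated overnight at 37 °C; colonies counted at lowest resolvable dilution to give CFU. Three biological replicates.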

[4] = tested on: non-growing S. aureus DSM2569; assay: Dilution-regrowth assay (OD600, start-growth-time) on stationary-phase S. aureus; assay type: cell-based, Staphylococcus aureus; settings: S. aureus; for Regrowth, OD600 at 6h or 8h after dilution into drug-free medium: average
Summary of the method: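 Stationary-phase S. aureus cultures were grown and exposed to compound for 24 h in 1:4 CA-MHB (pH 7.4) at 37 °C in 96-well plates with 200 μl volume. After dilution into drug-free medium, regrowth was tracked in a plate reader at 37 °C with continuous shaking, reading OD600 every 20 min; EC50 came from five-parameter logistic fitting.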

[5] = E. coli in 1:4 CA-MHB (pH 7.4), concentration 0.25
[6] = E. coli in 1:4 CA-MHB (pH 7.4), concentration 0.5
[7] = E. coli in 1:4 CA-MHB (pH 7.4), concentration 1
[8] = E. coli in 1:4 CA-MHB (pH 7.4), concentration 2.5
[9] = E. coli in 1:4 CA-MHB (pH 7.4), concentration 5
[10] = E. coli in LPM (pH 5.5), concentration 0.25
[11] = E. coli in LPM (pH 5.5), concentration 0.5
[12] = E. coli in LPM (pH 5.5), concentration 1
[13] = E. coli in LPM (pH 5.5), concentration 2.5
[14] = E. coli in LPM (pH 5.5), concentration 5

CCCCCCCCN=c1ccn(CCCCCCCCCCn2ccc(=NCCCCCCCC)cc2)cc1 [Octenidine]
Regrowth, OD600 at 6h or 8h after dilution into drug-free medium (non-growing UPEC CFT073 [1]; [5]): 0.612 | Regrowth, OD600 at 6h or 8h after dilution into drug-free medium (non-growing UPEC CFT073 [1]; [6]): 0.602 | Regrowth, OD600 at 6h or 8h after dilution into drug-free medium (non-growing UPEC CFT073 [1]; [7]): 0.603 | Regrowth, OD600 at 6h or 8h after dilution into drug-free medium (non-growing UPEC CFT073 [1]; [8]): 0.605 | Regrowth, OD600 at 6h or 8h after dilution into drug-free medium (non-growing UPEC CFT073 [1]; [9]): 0.549 | Regrowth, OD600 at 6h or 8h after dilution into drug-free medium (average) (non-growing UPEC CFT073 [1]; E. coli in 1:4 CA-MHB (pH 7.4), drug concentration 10): 0.188 | Regrowth, OD600 at 6h or 8h after dilution into drug-free medium (average) (non-growing UPEC CFT073 [1]; E. coli in 1:4 CA-MHB (pH 7.4), drug concentration 30): 0.074 | Regrowth, OD600 at 6h or 8h after dilution into drug-free medium (non-growing UPEC CFT073 [1]; [10]): 0.551 | Regrowth, OD600 at 6h or 8h after dilution into drug-free medium (non-growing UPEC CFT073 [1]; [11]): 0.543 | Regrowth, OD600 at 6h or 8h after dilution into drug-free medium (non-growing UPEC CFT073 [1]; [12]): 0.551 | Regrowth, OD600 at 6h or 8h after dilution into drug-free medium (non-growing UPEC CFT073 [1]; [13]): 0.544 | Regrowth, OD600 at 6h or 8h after dilution into drug-free medium (non-growing UPEC CFT073 [1]; [14]): 0.198 | Regrowth, OD600 at 6h or 8h after dilution into drug-free medium (average) (non-growing UPEC CFT073 [1]; E. coli in LPM (pH 5.5), drug concentration 10): 0.071 | Regrowth, OD600 at 6h or 8h after dilution into drug-free medium (average) (non-growing UPEC CFT073 [1]; E. coli in LPM (pH 5.5), drug concentration 30): 0.077 | EC50 (non-growing UPEC CFT073 [1]; 1:4 CA-MHB pH 7.4 (black curve), medium assigned by comparison with Dataset 1, read-out: EC50 (regrowth inhibition curve, Fig. S4)): 7.95 µM | EC50 (non-growing UPEC CFT073 [1]; E. coli, pH 7.4, regrowth delay of non-growing bacteria, 1:4 CA-MHB, 24 h treatment, OD600 6 h after 2500-fold dilution, read-out: EC50): 7.67 µM | EC50 (non-growing UPEC CFT073 [1]; LPM pH 5.5 (red curve), medium assigned by comparison with Dataset 1, read-out: EC50 (regrowth inhibition curve, Fig. S4)): 4.41 µM | activity against non-growing UPEC in LPM (pH 5.5) compared to 1:4 CA-MHB (pH 7.4) (non-growing UPEC CFT073 [1]; regrowth delay and killing, Figs. 2 and 3): potentiated by the low pH | MIC (P. aeruginosa DSM1117): 4 µM (≈ 2.2 µg/mL) | log10(CFU/ml) after treatment ([2]; concentration 0.1): 10.204 log10(CFU/ml) and 9.447 log10(CFU/ml) and 9.415 log10(CFU/ml) | killing, average Δlog10(CFU/ml) ([2]; concentration 0.1, vs CFU before treatment): -0.305 log10(CFU/ml) | log10(CFU/ml) after treatment ([2]; concentration 0.5): 9.146 log10(CFU/ml) and 9.322 log10(CFU/ml) and 9.255 log10(CFU/ml) | killing, average Δlog10(CFU/ml) ([2]; concentration 0.5, vs CFU before treatment): 0.143 log10(CFU/ml) | log10(CFU/ml) after treatment ([2]; concentration 2.5): 9.230 log10(CFU/ml) (2×) and 9.322 log10(CFU/ml) | killing, average Δlog10(CFU/ml) ([2]; concentration 2.5, vs CFU before treatment): 0.123 log10(CFU/ml) | killing, average Δlog10(CFU/ml) ([2]; drug concentration 10): 0.517 log10(CFU/ml) | log10(CFU/ml) after treatment (non-growing UPEC CFT073 [3]; [5]): 9.255 log10(CFU/ml) and 9.041 log10(CFU/ml) and 8.954 log10(CFU/ml) | log10(CFU/ml) after treatment (non-growing UPEC CFT073 [3]; [6]): 9.041 log10(CFU/ml) and 9.176 log10(CFU/ml) and 9.301 log10(CFU/ml) | log10(CFU/ml) after treatment (non-growing UPEC CFT073 [3]; [7]): 9.146 log10(CFU/ml) and 9.204 log10(CFU/ml) and 9.041 log10(CFU/ml) | log10(CFU/ml) after treatment (non-growing UPEC CFT073 [3]; [8]): 9.000 log10(CFU/ml) and 8.903 log10(CFU/ml) and 8.778 log10(CFU/ml) | log10(CFU/ml) after treatment (non-growing UPEC CFT073 [3]; [9]): 8.000 log10(CFU/ml) (2×) and 8.146 log10(CFU/ml) | log10(CFU/ml) after treatment (non-growing UPEC CFT073 [3]; [10]): 7.301 log10(CFU/ml) and 7.568 log10(CFU/ml) and 7.886 log10(CFU/ml) | log10(CFU/ml) after treatment (non-growing UPEC CFT073 [3]; [11]): 7.580 log10(CFU/ml) and 7.447 log10(CFU/ml) and 7.881 log10(CFU/ml) | log10(CFU/ml) after treatment (non-growing UPEC CFT073 [3]; [12]): 7.447 log10(CFU/ml) and 7.663 log10(CFU/ml) and 7.778 log10(CFU/ml) | log10(CFU/ml) after treatment (non-growing UPEC CFT073 [3]; [13]): 7.491 log10(CFU/ml) and 7.633 log10(CFU/ml) and 7.875 log10(CFU/ml) | log10(CFU/ml) after treatment (non-growing UPEC CFT073 [3]; [14]): 7.380 log10(CFU/ml) and 7.663 log10(CFU/ml) and 7.863 log10(CFU/ml) | Regrowth, OD600 at 6h or 8h after dilution into drug-free medium ([4]; concentration 0.1): 0.879 | Regrowth, OD600 at 6h or 8h after dilution into drug-free medium ([4]; concentration 0.5): 0.554 | Regrowth, OD600 at 6h or 8h after dilution into drug-free medium ([4]; concentration 2.5): 0.478 | Regrowth, OD600 at 6h or 8h after dilution into drug-free medium (average) ([4]; drug concentration 10): 0.086 | EC50 ([4]; Staphylococcus aureus, DSM2569, regrowth delay of non-growing bacteria, 1:4 CA-MHB pH 7.4, 24 h treatment, OD600 8 h after dilution, read-out: EC50): 3.3 µM
